Experimental data published in patent US20140120060A1, “TREATMENT OF RHEUMATOID ARTHRITIS AND ASTHMA USING PI3 KINASE INHIBITORS” (INFINITY PHARMACEUTICALS, INC., priority 2012, published 2014).

Test system: B cell
Test: B cell proliferation
Format: cell-based

## Cc1ccccc1-n1c(Cn2nc(C#C[C@H](C)O)c3c(N)ncnc32)cc2cccc(C)c2c1=O [Compound 85]
  EC50: < 1000 nM

## Cc1cccc2cc(Cn3nc(I)c4c(N)ncnc43)n(C3CC3)c(=O)c12 [Compound 86]
  EC50: < 1000 nM

## Cc1cccc2cc(Cn3nc(I)c4c(N)ncnc43)n(C3CCCCC3)c(=O)c12 [Compound 87]
  EC50: < 10000 nM

## CCc1ccccc1-n1c(Cn2nc(-c3cccc(O)c3)c3c(N)ncnc32)cc2cccc(C)c2c1=O [Compound 88]
  EC50: < 100 nM

## CCc1ccccc1-n1c(Cn2nc(-c3cc(O)cc(F)c3)c3c(N)ncnc32)cc2cccc(C)c2c1=O [Compound 89]
  EC50: < 100 nM

## Cc1cccc2cc(Cn3nc(-c4cc(O)cc(F)c4)c4c(N)ncnc43)n(-c3ccccc3O)c(=O)c12 [Compound 90]
  EC50: < 100 nM

## Cc1cccc2cc(Cn3nc(C#C[C@@H](C)O)c4c(N)ncnc43)n(-c3ccccc3O)c(=O)c12 [Compound 91]
  EC50: < 1000 nM

## Cc1cccnc1-n1c(Cn2nc(-c3cc(O)cc(F)c3)c3c(N)ncnc32)cc2ccccc2c1=O [Compound 93]
  EC50: < 100 nM

## Cc1cccc2cc(Cn3nc(-c4cc(O)cc(F)c4)c4c(N)ncnc43)n(-c3ccccc3C(C)C)c(=O)c12 [Compound 95]
  EC50: < 100 nM

## Cc1cccc2cc(Cn3nc(-c4cccc(O)c4)c4c(N)ncnc43)n(-c3ccccc3Cl)c(=O)c12 [Compound 96]
  EC50: < 100 nM

## Cc1cccc2cc(Cn3nc(-c4cc(O)cc(F)c4)c4c(N)ncnc43)n(-c3ccccc3Cl)c(=O)c12 [Compound 97]
  EC50: < 100 nM

## Cc1cccc2cc(Cn3nc(C#C[C@@H](C)O)c4c(N)ncnc43)n(-c3ccccc3Cl)c(=O)c12 [Compound 98]
  EC50: < 1000 nM

## CCc1ccccc1-n1c(Cn2nc(C#C[C@@H](C)O)c3c(N)ncnc32)cc2cccc(C)c2c1=O [Compound 99]
  EC50: < 100 nM

## Cc1cccc2cc(Cn3nc(C#C[C@@H](C)O)c4c(N)ncnc43)n(C3CC3)c(=O)c12 [Compound 100]
  EC50: < 1000 nM

## Cc1cccc2cc(Cn3nc(-c4cc(O)cc(F)c4)c4c(N)ncnc43)n(C3CC3)c(=O)c12 [Compound 101]
  EC50: < 100 nM

## Cc1cccc2cc(Cn3nc(-c4cccc(O)c4)c4c(N)ncnc43)n(C3CC3)c(=O)c12 [Compound 102]
  EC50: < 100 nM

## Cc1cccc2cc(Cn3nc(I)c4c(N)ncnc43)n(-c3ccccc3OCCN3CCOCC3)c(=O)c12 [Compound 103]
  EC50: < 1000 nM

## Cc1cccc2cc(Cn3nc(I)c4c(N)ncnc43)n(C3CCC3)c(=O)c12 [Compound 105]
  EC50: < 1000 nM

## COc1cccc(-c2nn(Cc3cc4cccc(C)c4c(=O)n3-c3ccccc3C)c3ncnc(N)c23)c1 [Compound 106]
  EC50: < 1000 nM

## Cc1cccc2cc(Cn3nc(I)c4c(N)ncnc43)n(C)c(=O)c12 [Compound 107]
  EC50: < 1000 nM

## Cc1cccc2cc(Cn3nc(-c4cc(O)cc(F)c4)c4c(N)ncnc43)n(-c3ccccc3OCCN3CCOCC3)c(=O)c12 [Compound 108]
  EC50: < 100 nM

## Cc1cccc2cc(Cn3nc(-c4cccc(O)c4)c4c(N)ncnc43)n(-c3ccccc3OCCN3CCOCC3)c(=O)c12 [Compound 109]
  EC50: < 100 nM

## Cc1cccc2cc(Cn3nc(-c4cc(O)cc(F)c4)c4c(N)ncnc43)n(C3CCCCC3)c(=O)c12 [Compound 110]
  EC50: < 1000 nM

## Cc1cccc2cc(Cn3nc(-c4cccc(O)c4)c4c(N)ncnc43)n(C3CCCCC3)c(=O)c12 [Compound 111]
  EC50: < 1000 nM

## Cc1cccc2cc(Cn3nc(C#C[C@@H](C)O)c4c(N)ncnc43)n(C3CCCCC3)c(=O)c12 [Compound 112]
  EC50: < 10000 nM

## Cc1cccc2cc(Cn3nc(-c4cccc(O)c4)c4c(N)ncnc43)n(C3CCC3)c(=O)c12 [Compound 114]
  EC50: < 1000 nM

## Cc1cccc2cc(Cn3nc(-c4cc(O)cc(F)c4)c4c(N)ncnc43)n(C3CCC3)c(=O)c12 [Compound 115]
  EC50: < 100 nM

## Cc1ccccc1-n1c(Cn2nc(-c3cccc(O)c3)c3c(N)nccc32)cc2cccc(C)c2c1=O [Compound 119]
  EC50: < 1000 nM

## Cc1cccc2cc(Cn3nc(-c4ccc(Cl)c(O)c4)c4c(N)ncnc43)n(C(C)C)c(=O)c12 [Compound 123]
  EC50: < 100 nM

## Cc1cccc2cc(Cn3nc(-c4cccc(O)c4)c4c(N)ncnc43)n(C)c(=O)c12 [Compound 124]
  EC50: < 1000 nM

## Cc1cccc2cc(Cn3nc(-c4cc(O)cc(F)c4)c4c(N)ncnc43)n(C)c(=O)c12 [Compound 125]
  EC50: < 100 nM

## CCn1c(Cn2nc(-c3cccc(O)c3)c3c(N)ncnc32)cc2cccc(C)c2c1=O [Compound 126]
  EC50: < 100 nM

## Cc1cccc2cc(Cn3nc(-c4cc(O)cc(F)c4)c4c(N)ncnc43)n(C3CCOCC3)c(=O)c12 [Compound 128]
  EC50: < 100 nM

## CC(C)n1c(Cn2nc(-c3cccc(O)c3)c3c(N)ncnc32)cc2cccc(F)c2c1=O [Compound 133]
  EC50: < 1000 nM

## CC(C)n1c(Cn2nc(-c3cc(O)cc(F)c3)c3c(N)ncnc32)cc2cccc(F)c2c1=O [Compound 134]
  EC50: < 100 nM

## CC(C)n1c(Cn2nc(-c3cccc(O)c3)c3c(N)ncnc32)cc2ccccc2c1=O [Compound 135]
  EC50: < 1000 nM

## CC(C)n1c(Cn2nc(-c3cc(O)cc(F)c3)c3c(N)ncnc32)cc2ccccc2c1=O [Compound 136]
  EC50: < 100 nM

## CC(C)n1c(Cn2nc(-c3cccc(O)c3)c3c(N)ncnc32)cc2cccc(Cl)c2c1=O [Compound 137]
  EC50: < 100 nM

## CC(C)n1c(Cn2nc(-c3cc(O)cc(F)c3)c3c(N)ncnc32)cc2cccc(Cl)c2c1=O [Compound 138]
  EC50: < 100 nM

## Nc1ncnc2c1c(I)nn2Cc1cc2cccc(Cl)c2c(=O)n1C1CC1 [Compound 139]
  EC50: < 100 nM

## Nc1ncnc2c1c(-c1cccc(O)c1)nn2Cc1cc2cccc(Cl)c2c(=O)n1C1CC1 [Compound 141]
  EC50: < 100 nM

## Nc1ncnc2c1c(-c1cc(O)cc(F)c1)nn2Cc1cc2cccc(Cl)c2c(=O)n1C1CC1 [Compound 142]
  EC50: < 100 nM

## Nc1ncnc2c1c(-c1cc(O)cc(F)c1)nn2Cc1cc2cccc(F)c2c(=O)n1-c1ccccc1F [Compound 144]
  EC50: < 100 nM

## Cc1ccccc1-n1c(Cn2nc(-c3ccc4nc(N)sc4c3)c3c(N)ncnc32)cc2cccc(C)c2c1=O [Compound 145]
  EC50: < 1000 nM

## Cc1cccc2cc(Cn3nc(-c4cccc(O)c4)c4c(N)ncnc43)n(-c3ccccc3)c(=O)c12 [Compound 146]
  EC50: < 100 nM

## Cc1cccc2cc(Cn3nc(-c4cc(O)cc(F)c4)c4c(N)ncnc43)n(-c3ccccc3)c(=O)c12 [Compound 147]
  EC50: < 100 nM

## CNC(=O)Nc1nc2ccc(-c3nn(Cc4cc5cccc(C)c5c(=O)n4-c4ccccc4C)c4ncnc(N)c34)cc2s1 [Compound 148]
  EC50: < 100 nM

## Cc1ccccc1-n1c(Cn2nc(-c3ccc4nc(N)ccc4c3)c3c(N)ncnc32)cc2cccc(C)c2c1=O [Compound 149]
  EC50: < 100 nM

## Cc1ccccc1-n1c(Cn2nc(-c3ccc4nc(N)ncc4c3)c3c(N)ncnc32)cc2cccc(C)c2c1=O [Compound 150]
  EC50: < 100 nM

## Cc1ccccc1-n1c(Cn2nc(-c3ccc4oc(N)nc4c3)c3c(N)ncnc32)cc2cccc(C)c2c1=O [Compound 151]
  EC50: < 100 nM

## Cc1ccccc1-n1c(Cn2nc(-c3ccc4ncnc(N)c4c3)c3c(N)ncnc32)cc2cccc(C)c2c1=O [Compound 152]
  EC50: < 1000 nM

## CC(=O)Nc1nc2ccc(-c3nn(Cc4cc5cccc(C)c5c(=O)n4C)c4ncnc(N)c34)cc2s1 [Compound 153]
  EC50: < 100 nM

## CC(=O)Nc1nc2ccc(-c3nn(Cc4cc5cccc(C)c5c(=O)n4C(C)C)c4ncnc(N)c34)cc2s1 [Compound 154]
  EC50: < 100 nM

## CC(=O)Nc1nc2ccc(-c3nn(Cc4cc5cccc(C)c5c(=O)n4C4CC4)c4ncnc(N)c34)cc2s1 [Compound 155]
  EC50: < 100 nM

## CC(=O)Nc1nc2ccc(-c3nn(Cc4cc5cccc(Cl)c5c(=O)n4C4CC4)c4ncnc(N)c34)cc2s1 [Compound 156]
  EC50: < 100 nM

## CC(=O)Nc1nc2ccc(-c3nn(Cc4cc5cccc(Cl)c5c(=O)n4C(C)C)c4ncnc(N)c34)cc2s1 [Compound 157]
  EC50: < 100 nM

## CC(=O)Nc1nc2ccc(-c3nn(Cc4cc5cccc(F)c5c(=O)n4C(C)C)c4ncnc(N)c34)cc2s1 [Compound 158]
  EC50: < 100 nM

## CC(=O)Nc1nc2ccc(-c3nn(Cc4cc5cccc(C)c5c(=O)n4C4CCC4)c4ncnc(N)c34)cc2s1 [Compound 159]
  EC50: < 100 nM

## Cc1ccccc1-n1c(Cn2nc(-c3cn[nH]c3)c3c(N)ncnc32)cc2cccc(C)c2c1=O [Compound 160]
  EC50: < 100 nM

## Cc1cccc2cc(Cn3nc(-c4cn[nH]c4)c4c(N)ncnc43)n(-c3ccccc3F)c(=O)c12 [Compound 161]
  EC50: < 1000 nM

## Cc1ccccc1-n1c(Cn2nc(-c3cnn(CCO)c3)c3c(N)ncnc32)cc2cccc(C)c2c1=O [Compound 163]
  EC50: < 1000 nM

## Cc1cccc2cc(Cn3nc(-c4cn[nH]c4)c4c(N)ncnc43)n(-c3cccc(F)c3)c(=O)c12 [Compound 166]
  EC50: < 100 nM

## Cc1cccc2cc(C(C)Nc3ncnc4[nH]cnc34)n(-c3ccccc3F)c(=O)c12 (stereo not shown) [Compound 167]
  EC50: < 100 nM

## CC(=O)Nc1nc2ccc(-c3nn(Cc4cc5ccccc5c(=O)n4-c4ccccc4C)c4ncnc(N)c34)cc2s1 [Compound 168]
  EC50: < 100 nM

## Cc1cccc2cc(Cn3nc(C#N)c4c(N)ncnc43)n(-c3ccccc3F)c(=O)c12 [Compound 169]
  EC50: < 1000 nM

## Cc1ccccc1-n1c(Cn2nc(C#N)c3c(N)ncnc32)cc2cccc(C)c2c1=O [Compound 170]
  EC50: < 100 nM

## Cc1cccc2cc(Cn3nc(/C=C4/SC(=O)NC4=O)c4c(N)ncnc43)n(-c3ccccc3F)c(=O)c12 [Compound 171]
  EC50: < 100 nM

## Cc1ccccc1-n1c(Cn2nc(/C=C3/SC(=O)NC3=O)c3c(N)ncnc32)cc2cccc(C)c2c1=O [Compound 173]
  EC50: < 100 nM

## Cc1ccccc1-n1c(Cn2nc(/C=C/C(N)=O)c3c(N)ncnc32)cc2cccc(C)c2c1=O [Compound 174]
  EC50: < 100 nM

## CCn1c(Cn2nc(-c3ccc4nc(NC(C)=O)sc4c3)c3c(N)ncnc32)cc2cccc(C)c2c1=O [Compound 176]
  EC50: < 100 nM

## CC(=O)Nc1nc2ccc(-c3nn(Cc4cc5cccc(C)c5c(=O)n4-c4ccccc4)c4ncnc(N)c34)cc2s1 [Compound 177]
  EC50: < 100 nM

## CC(=O)Nc1nc2ccc(-c3nn(Cc4cc5cccc(C)c5c(=O)n4-c4cccc(F)c4)c4ncnc(N)c34)cc2s1 [Compound 178]
  EC50: < 100 nM

## C=Cc1nn(Cc2cc3cccc(C)c3c(=O)n2-c2ccccc2C)c2ncnc(N)c12 [Compound 180]
  EC50: < 100 nM
